In patent US11129840B2, “Methods for identifying novel dosing regimens” (Zavante Therapeutics, Inc., priority 2017, dated 2021):
Converted amounts (≈) assume the structure as drawn. Marks after values point to notes of the source that are not given here.

What was measured:
EC, KPN and PSA isolates = experiment: Thigh infection, dose fractionation and efficacy against all 10 isolates; assay type: in vivo, mice; conditions: 24 h; commonly in isolates with lower MICs
Procedure: (§1) 5 EC (4 ESBL), 3 KPN (2 CR), and 2 PSA were used. MICs were determined by agar dilution. […] PK/PD index determination was performed using a dose fractionation (DF) study design. […] The dose-response data was analyzed using the Emax Hill equation.

PSA = experiment: Thigh infection, static dose and PD targets; assay type: in vivo, mice
Procedure: as §1

KPN = experiment: Thigh infection, static dose and PD targets; assay type: in vivo, mice
Procedure: as §1

EC = experiment: Thigh infection, static dose and PD targets; assay type: in vivo, mice
Procedure: as §1

[1] = test system: Acinetobacter-baumannii-calcoaceticus complex; experiment: Reference agar dilution MIC, SENTRY US isolates; assay type: cell-based
Procedure: (§2) FOS was tested against over 1,400 GN and 800 GP clinical isolates collected in US medical centers as part of the SENTRY Antimicrobial Surveillance Program (96% of isolates from 2015) and a selection of 29 GN and 20 GP anaerobes. Isolates were susceptibility (S) tested against FOS and comparators by reference agar dilution (25 μg/mL glucose-6-phosphate supplementation) using existing FDA breakpoints of the oral formulation for comparative assessments.

Pseudomonas aeruginosa = experiment: Reference agar dilution MIC, SENTRY US isolates; assay type: cell-based
Procedure: as §2

E. cloacae complex = experiment: Reference agar dilution MIC, SENTRY US isolates; assay type: cell-based; conditions: Enterobacter cloacae; randomly selected
Procedure: as §2

S. saprophyticus = experiment: Reference agar dilution MIC, SENTRY US isolates; assay type: cell-based; conditions: Staphylococcus saprophyticus
Procedure: as §2

Citrobacter koseri = experiment: Reference agar dilution MIC, SENTRY US isolates; assay type: cell-based; conditions: randomly selected
Procedure: as §2

[2] = test system: Carbapenemase-producing Enterobacteriaceae (CPE); experiment: FOF MIC by ETEST; assay type: cell-based; conditions: 37 CPE incl. 11 harboring fos(A)
Procedure: Isolates (n=37) harboring KPC, NDM, OXA, or VIM carbapenemases, with a majority also producing extended-spectrum β-lactamases, were acquired from the FDA-CDC Antimicrobial Resistant Bank. MICs for agents tested in combination with FOF were determined by broth microdilution; FOF MIC was determined by ETEST® antibiotic gradient diffusion strip prior to conducting synergy assessments between FOF and aztreonam (ATM), ceftazidime (CAZ), ceftazidime/avibactam (CZA), cefepime, ceftolozane/tazobactam (C/T), meropenem, piperacillin/tazobactam, and tobramycin (TOB). Synergistic potential for each combination was determined by crossing a FOF ETEST® strip with each of the aforementioned antibiotic strips at a 90° angle at their respective MICs with subsequent calculation of the fractional inhibitory concentration (FIC). […] Only organisms that were non-susceptible to the second drug were assessed for synergy.

EC that were CR = experiment: Reference agar dilution MIC, resistant SENTRY isolates; assay type: cell-based, Escherichia coli
Procedure: Utilizing existing interpretative criteria for the marketed oral agent (dosed at 3 g) for analysis purposes, FOS susceptibility (S) was determined for recent resistant GN and GP clinical isolates including vancomycin-resistant Enterococcus faecium (VREM) and E. faecalis (VREF); methicillin-resistant Staphylococcus aureus (MRSA) and MR coagulase negative staphylococci (MR-CoNS), Escherichia coli (EC) and Klebsiella pneumoniae (KPN) containing extended spectrum beta-lactamases (ESBL) or were carbapenem resistant (CR); and), Pseudomonas aeruginosa (PSA) non-susceptible to ceftazidime (CAZ-NS) or to meropenem (MER-NS). […] Isolates were collected from hospitalized patients in the US as a part of the SENTRY surveillance program, 2013-2015.

CR-KPN = experiment: as above; assay type: cell-based, Klebsiella pneumoniae
Procedure: (§3) Utilizing existing interpretative criteria for the marketed oral agent (dosed at 3 g) for analysis purposes, FOS susceptibility (S) was determined for recent resistant GN and GP clinical isolates including vancomycin-resistant Enterococcus faecium (VREM) and E. faecalis (VREF); methicillin-resistant Staphylococcus aureus (MRSA) and MR coagulase negative staphylococci (MR-CoNS), Escherichia coli (EC) and Klebsiella pneumoniae (KPN) containing extended spectrum beta-lactamases (ESBL) or were carbapenem resistant (CR); and), Pseudomonas aeruginosa (PSA) non-susceptible to ceftazidime (CAZ-NS) or to meropenem (MER-NS).

KPN with ESBL phenotype = experiment: as above; assay type: cell-based, Klebsiella pneumoniae
Procedure: as §3

[3] = Klebsiella pneumoniae, 17 CR-KPN

For `C[C@@H]1O[C@@H]1P(=O)(O)O` [FOS, fosfomycin], the Maximal cidal activity (EC, KPN and PSA isolates) was 2-3 log kill, the “Static Dose” value (PSA; mean) was 1920 mg/kg/24 h and the “Stasis AUC/MIC” value (PSA; mouse, in vivo) was 15. For the same compound, the “Stasis T > MIC” value (PSA; mouse, in vivo) was 29%, the “Static Dose” value (KPN; mean) was 1667 mg/kg/24 h and the “Stasis AUC/MIC” value (KPN; median target) was 11.1*. The “Stasis T > MIC” value (KPN; median target) was 26.5* %, the “Static Dose” value (EC; mean) was 847 mg/kg/24 h and the “Stasis AUC/MIC” value (EC; median target) was 19.3*. The “Stasis T > MIC” value (EC; median target) was 37.7* %, the MIC50 [1] was 128 µg/mL (≈ 927 µM) and the MIC90 [1] was 256 µg/mL (≈ 1850 µM). The MIC50 (Pseudomonas aeruginosa) was 64 µg/mL (≈ 464 µM), the MIC90 (Pseudomonas aeruginosa) was 128 µg/mL (≈ 927 µM) and the MIC50 (E. cloacae complex) was 8 µg/mL (≈ 57.9 µM). It also gave an MIC90 (E. cloacae complex) of 64 µg/mL (≈ 464 µM), an MIC50 (S. saprophyticus) of 128 µg/mL (≈ 927 µM) and an MIC90 (S. saprophyticus) of over 256 µg/mL. It also gave an MIC50 (Citrobacter koseri) of 1 µg/mL (≈ 7.24 µM), an MIC90 (Citrobacter koseri) of 1 µg/mL (≈ 7.24 µM) and an MIC50 [2] of over 1020 µg/mL. For the same compound, the MIC range (EC that were CR; 9 of 11 isolates) was 0.5 to 32 µg/mL, the MIC (EC that were CR; Escherichia coli) was over 256 µg/mL and the MIC50 (CR-KPN; [3]) was 8 µg/mL (≈ 57.9 µM). The MIC90 (CR-KPN; [3]) was 64 µg/mL (≈ 464 µM), the “No. of isolates with FOS MIC≤64 μg/mL” value (CR-KPN; of 17 CR-KPN) was 16 and the MIC (CR-KPN; one isolate) was over 256 µg/mL. For the same compound, the MIC (KPN with ESBL phenotype; Klebsiella pneumoniae) was over 256 µg/mL, the MIC50 (KPN with ESBL phenotype; Klebsiella pneumoniae, 50 KPN) was 4 µg/mL (≈ 29 µM) and the MIC90 (KPN with ESBL phenotype; Klebsiella pneumoniae, 50 KPN) was 16 µg/mL (≈ 116 µM). For the same compound, the “No. of isolates with FOS MIC≤64 μg/mL” value (KPN with ESBL phenotype; of 50 KPN) was 49.
